Source: patent US8153441B2, “Method for analyzing structure and purity of serotonin transporter imaging agent [123 I] ADAM and precursor SnADAM” (Institute of Nuclear Energy Research Atomic Energy Council, priority 2008, dated 2012)

Key:
[1] = Solution stability experiment of SnADAM-MeOH solution (HPLC purity after storage at room temperature); assay type: physicochemical; conditions: for Purity of tested samples: room temperature
Method: 15.3 ppm, 153 ppm and 306 ppm SnADAM (test sample)-MeOH solutions were prepared and stored at room temperature for three days, and then continuously subjected to HPLC analysis. Meanwhile, a portion of fresh 10-320 ppm SnADAM-MeOH solution is prepared each day to serve as calibration standard sample. The SnADAM chromatographic peak retention time (tR), linear least square regression equation, correlation coefficient (r), purity of the test sample, SD, and RSD of the calibration sample were calculated. Referring to Table 5, the linear correlation coefficients of the fresh calibration standards prepared in three days were all greater than 0.9996. After the test sample was stored at room temperature for three days, the SnADAM retention time RSD=0.31%, and the mean purity RSD=0.05%.

[2] = Forced degradation experiment of SnADAM (HPLC); assay type: physicochemical
Method: Three portions of 0.50 mg SnADAM were dissolved in MeOH solvent, respectively added with 1 M HCl solution, 1 M NaOH solution, and 3% H2O2 solution, and then reacted at room temperature for 30 min. The first two portions of solutions were respectively neutralized with 1 M NaOH and 1 M HCl and then added with suitable amounts of MeOH to dissolve the precipitate, while the third portion of solution was directly diluted with a suitable amount of MeOH after the reaction and then subjected to HPLC analysis. Another portion of 0.50 mg SnADAM was heated in an oven at 80° C. for 30 min, dissolved in MeOH solvent, and then subjected to HPLC analysis. […] Therefore, SnADAM can be separated from the impurities (as shown in FIG. 2) and the degradation products (as shown in FIGS. 3A-3D) without interfering with the quantitative results.

## CCC[CH2][Sn]([CH2]CCC)([CH2]CCC)[c]1ccc(Sc2ccccc2CN(C)C)c(N)c1 [SnADAM, 2-((2-((Dimethylamino)methyl)phenyl)thio)-5-(tri-n-butyltin)-phenylamine]
[1]; SnADAM-MeOH solution 15.3 ppm, day 1
  Purity of tested samples: 98.17 ± 0.17 (0.18%, n = 3)
[1]; SnADAM-MeOH solution 15.3 ppm, day 2
  Purity of tested samples: 98.12 ± 0.21 (0.21%, n = 3)
[1]; SnADAM-MeOH solution 15.3 ppm, day 3
  Purity of tested samples: 97.96 ± 0.73 (0.74%, n = 3)
[1]; SnADAM-MeOH solution 153.0 ppm, day 1
  Purity of tested samples: 97.12 ± 0.15 (0.15%, n = 3)
[1]; SnADAM-MeOH solution 153.0 ppm, day 2
  Purity of tested samples: 97.00 ± 0.25 (0.26%, n = 3)
[1]; SnADAM-MeOH solution 153.0 ppm, day 3
  Purity of tested samples: 97.12 ± 0.04 (0.04%, n = 3)
[1]; SnADAM-MeOH solution 306.0 ppm, day 1
  Purity of tested samples: 96.77 ± 0.07 (0.07%, n = 3)
[1]; SnADAM-MeOH solution 306.0 ppm, day 2
  Purity of tested samples: 96.73 ± 0.06 (0.06%, n = 3)
[1]; SnADAM-MeOH solution 306.0 ppm, day 3
  Purity of tested samples: 96.70 ± 0.20 (0.20%, n = 3)
[1]; stored at room temperature for three days
  Stability of SnADAM-MeOH solution (change in purity): no significant change in purity
[2]; 1 M HCl solution, room temperature, 30 min
  Forced degradation: two major degradation products FD1 (tR=1.55 min) and FD2 (tR=1.80 min)
[2]; 1 M NaOH solution, room temperature, 30 min
  Forced degradation: a major degradation product FD1 (tR=1.55 min)
[2]; 3% H2O2 solution, room temperature, 30 min
  Forced degradation: a major degradation product FD1 (tR=1.55 min) having the same retention time as H2O2
[2]; heated in an oven at 80° C. for 30 min
  Forced degradation: little effect on the degradation
